Where “and” joins values, the source holds several entries; their conditions need not be identical. Equal entries are not always repeated. Where two headings read alike, the source gives them in different places.
Experiments:
[1] = Population pharmacokinetic analysis (NONMEM), mouse; format: in vivo; details: Mouse (IV)
Method: An analysis was performed to derive allometric equations for Formula I pharmacokinetic parameters using Formula I plasma concentration-time data from three species, including mouse, rat, and monkey, and to estimate human pharmacokinetic parameters from those allometric equations.
Plasma concentrations of Formula I were obtained from mice, rats, and monkeys following intravenous injection or continuous infusion. Formula I pharmacokinetic parameters in mice, rats, and monkeys were estimated using population pharmacokinetic analysis, a function of the software program NONMEM™ (version 5). Typical population pharmacokinetic parameters for Formula I in humans were extrapolated from allometric equations that were derived from pharmacokinetic parameters estimated in the three animal species.
A two-compartment model with a first-order elimination from the central compartment adequately described Formula I plasma concentration-time profiles following intravenous bolus injection (30 mg/kg) in mice and rats, 7-day continuous infusion in rats (50 to 170 mg/kg/day), and 14-day continuous infusion in monkeys (5 to 30 mg/kg/day).

[2] = test system: human breast tumor (MDA-MB-231) xenografts; test: Human MDA-MB-231 breast tumor xenograft efficacy; format: in vivo, HRLN female nude mice; details: for T/C / %T/C: day 21; for %T/C: P < 0.0001
Method: The antitumor activity of the compound of Formula I was further tested in a human MD-MB-231 breast cancer model in mice. HRLN female nude mice (8 weeks of age) were treated with 5x10^6 MDA-MB-231 tumor cells (SC) in the right flank. Animals were randomized (ten per group) when tumors reach an average size of 80 - 120 mg and treatment began according to the table below. For these studies, the compound of Formula I was formulated in 5% ethanol, 5% PEG-400, 15% Polysorbate 80, and 75% of water containing 5% dextrose.
Tumor measurements were taken twice weekly using calipers and were converted to tumor mass (in milligrams) using the formula: with^2 (mm) x length (mm) x 0.52. Body weights were also recorded twice weekly. Statistical analysis was done using the unpaired two-tailed Student's t test.

[3] = Acute toxicity of 24-hour CIV administration in monkeys; format: in vivo; details: infusion rate 2 mL/kg/hour
[4] = Pharmacokinetics of 14-day continuous intravenous infusion in monkeys; format: in vivo, Cynomolgus monkeys; details: for Css / mean steady-state plasma concentration / T½z: 14-day CIV; for Css: average between 30h and 14 days; for Css / T½z: mean; for mean steady-state plasma concentration: between 30 h and 14 days; for T½z: calculated at the end of treatment; for plasma concentration: CIV 30 mg/kg/day
Method: Cynomolgus monkeys received continuous IV infusion over 14 days of Formula I at 5 mg/kg/day, 15 mg/kg/day, or 30 mg/kg/day. The drug was infused intravenously (24 hours/day) into the femoral vein at a dose rate of 2 ml/kg/hour for 14 consecutive days. Blood samples were removed from each monkey on Days 1, 2, 6, 10, and 15 of the treatment period. Monkeys were bled by venipuncture and samples were collected into tubes containing K2EDTA. On Day 1, samples were collected at 2, 6, and 12 hours after initiation of treatment. Additional samples were collected at 30 hours after the start of infusion (Day 2). On Days 6 and 10, samples were collected at approximately 6 hours after the bag changes. At the end of the 14 days of infusion, on Day 15, samples were collected at 1 hour prior to cessation of dose administration, and at 5 min, 30 min, 1 h, 2 h, 4 h, 8 h, and 24 h following cessation of dose administration.

[5] = Pharmacokinetics and tissue distribution after bolus IV, IP, SC and PO administration in mice; format: in vivo, female Crl: CD1 mice
Method: The compound of formula I was dissolved in ethanol (5%), Polysorbate 80 (15%), PEG 400 (5%) and dextrose (5%) at a final concentration of 6 mg/ml (IV, IP and SC administration). For oral administration, the compound of Formula I was solubilized in Chremophor® EL/ Ethanol (50%:50%) at a final concentration of 6 mg/ml. Prior to dosing, animals (female Crl: CD1 mice; 6 weeks of age, 22-24g) were weighed, randomly selected and assigned to the different treatment groups. The compound of Formula I was administered by the bolus intravenous (IV), bolus subcutaneous (SC), bolus intraperitoneal (IP), or oral (PO) route to the assigned animals. The dosing volume of Formula I was 5 mL per kg body weight. Animals were anesthetized prior to bleeding with 5% isoflurane. Blood was collected into microtainer tubes containing the anticoagulant K2EDTA by cardiac puncture from each of 4 animals per bleeding timepoint (2min, 5 min, 15 min, 30 min, 1 h, 2h, 4h and 8h). Following collection, the samples were centrifuged and the plasma obtained from each sample was recovered and stored frozen (at approximately - 80°C) pending analysis. At the 5 min and 30 min time points, the following organs were harvested from each animal: brain, lungs, skeletal muscle, fat tissue, kidneys, spleen, thymus and liver. Tissues were frozen (at approximately -80°C) pending analysis. Samples were analysed by LC/MS/MS.
Plasma values of the compound of Formula I falling below the limit of quantitation (LOQ) were set to zero. […] The following pharmacokinetic parameters were calculated: area under the plasma concentration versus time curve from time zero to the last measurable concentration time point (AUCO-t), area under the plasma concentration versus time curve extrapolated to infinity (AUCinf), maximum observed plasma concentration (Cmax), time of maximum plasma concentration (tmax), apparent first-order terminal elimination rate constant (kel), apparent first-order terminal elimination half-life will be calculated as 0.693/kel (t1/2). The systemic clearance (CL) of the compound of Formula I after intravenous administration was calculated using Dose/AUCinf. Pharmacokinetic parameters were calculated using Kinetica™ 4.1.1 (InnaPhase Corporation, Philadelphia, PA).

[6] = typical population PK parameter

## CC(C)=CCC/C(C)=C/CC/C(C)=C/CN1C(=O)c2cccc(O)c2Nc2c(O)cc(O)cc21 [Formula I, 10-farnesyl-4,6,8-trihydroxy-dibenzodiazepin-11-one]
[1]; WT 0.022 Kg
  Q: 0.001 L/h
  V1: 0.004 L
  V2: 0.005 L
[1]; [6]
  Ke: 8.466 h⁻¹
  Q: 1.09 mL/min/kg
  V1: 0.176 L/kg
  V2: 0.225 L/kg
[2]; IP 30 mg/kg every three days x 7, P = 0.0007
  T/C: 58%
[2]; SC 20 mg/kg everyday for 21 days
  %T/C: 40%
[2]; SC 30 mg/kg days 1 to 5, 8 to 12
  %T/C: 35%
[2]; SC 50 mg/kg every three days x 7, P= 0.0019
  T/C: 68%
[2]; bolus intravenous treatment (100 mg/kg, 5/2/5/2/5)
  antitumor activity: did not result in activity
[3]; 35 mg/kg
  acute toxicity / tolerability: well tolerated
[3]; 70 mg/kg
  acute toxicity / tolerability: well tolerated
[4]; 15 mg/kg/day group versus 5 mg/kg/day group
  AUC increase between the groups: 3.4 fold
[4]; 30 mg/kg/day group versus 15 mg/kg/day group
  AUC higher than that of the middle dose group: 4.7 fold
[4]; 5 mg/kg/day
  Css: 358 ng/mL and 358 ^b ng/mL
  mean steady-state plasma concentration: ~0.8 µM
  T½z: 12 h
[4]; 15 mg/kg/day
  Css: 1,173 ng/mL
  mean steady-state plasma concentration: ~2.5 µM
  T½z: 8.3 h
[4]; 30 mg/kg/day
  Css: 6,283 ng/mL
  T½z: 8.1 h
[4]; Day 1
  plasma concentration: 2,814 ng/mL
[4]; Day 6
  plasma concentration: 4,354 ng/mL
[4]; Day 10
  plasma concentration: 6,855 ng/mL
[4]; day 15
  plasma concentration: 8,561 ng/mL
[5]; 30 mg/kg bolus IV, initial
  plasma concentration: 425000 nM
[5]; IP bolus, plasma
  peak concentration: 7.8 µM
  time peak concentration reached: 15 min
[5]; IV and IP bolus 30 mg/kg, 30 min
  tissue distribution: well distributed
[5]; SC bolus 30 mg/kg, 30 min
  tissue levels compared with IP: significantly lower
[5]; SC bolus, plasma
  peak concentration: 2.3 µM
  time peak concentration reached: 60 min
[5]; female, Crl: CD1, mouse, plasma, PO 30 mg/kg compared to IV bolus administration, read-out: orally bioavailable
  bioavailability: 5 to 8%
[5]; female, Crl:CD1, mouse, bolus IV 30 mg/kg, plasma, read-out: t1/2 α
  half-life: 4.7 min
[5]; female, Crl:CD1, mouse, plasma, 30 mg/kg bolus IV, by 8 hours, read-out: plasma concentration
  concentration at 8 h: ~100 nM
[5]; female, Crl:CD1, mouse, plasma, 30 mg/kg bolus IV, four hours after administration
  concentration at 4 h: 200 nM
[5]; female, Crl:CD1, mouse, plasma, 30 mg/kg bolus IV, within one hour
  concentration at 1 h: 1300 nM
[5]; female, Crl:CD1, mouse, plasma, 30 mg/kg, IP bolus, read-out: plasma concentration remained for up to 8 hours
  concentration at 8 h: ~950 nM
[5]; female, Crl:CD1, mouse, plasma, 30 mg/kg, SC bolus, read-out: plasma concentration remained for up to 8 hours
  concentration at 8 h: ~1800 nM
[5]; intraperitoneal and subcutaneous 30 mg/kg
  time plasma concentration is maintained at therapeutically relevant levels: over 8 hours
